Experimental data taken from US9284366B2, “Anti-acetylated huntingtin antibodies and uses therof” (The General Hospital Corporation, priority 2006, dated 2016).

Experiments:
[1] = test system: total Htt and acetyl-Htt level in Neuro2a cells; test: Proteasome and autophagy inhibitors in Neuro2a cells transfected with Htt590-97Q (western blot); assay type: cell-based; conditions: lactacystin 10 μM or 3-methyladenine 10 mM for 12 hrs
Experimental: Cell Culture and Transfection. Neuro2a, STHdh^Q7/Q7, and COS-7 cells were transfected using Lipofectamine 2000. For HDAC inhibition, TSA (1 μM) and NAM (5 mM) were applied 6 hrs and 16 hrs, respectively, prior to harvest. Unless indicated otherwise, cells were harvested 24 hrs after transfection. For the experiments with proteasome and autophagy inhibitors, Neuro2a cells were treated with lactacystin (10 μM) or 3-methyladenine (10 mM) for 12 hrs. For assessment of LC3 conversion, immortalized striatal cells (STHdh^Q7/Q7) were cultured as described (29), transfected for 48 hrs and treated with TSA (4 μM) and NAM (5 mM) 15 hrs prior to harvest.
To examine which of these pathways may be responsible for clearance of acetylated Htt polypeptide, Neuro2a cells were transfected with Htt590-97Q and treated with inhibitors of proteasome or autophagy. […] In order to further examine whether acetylated Htt polypeptide leads to activation of macroautophagy, LC3 conversion was assessed (17, 18). LC3, a mammalian homologue of yeast Atg8, is a diffusely distributed protein that upon activation by mammalian Atg7 undergoes posttranslational modification resulting in the product LC3-II, which firmly associates with the autophagosomal membrane. The amount of LC3-II, which migrates faster than LC3-I on SDS-PAGE, provides a reliable measure of autophagic activity (17). In order to assess autophagic activity in relation to Htt acetylation, immortalized striatal cells (STHdh^Q7/Q7) were transfected with Htt590-97Q or acetylation-resistant Htt590-97Q-KR, treated with TSA and NAM and analyzed by western blotting with anti-LC3 antibody (FIG. 3B).

Drosophila model of HD = conditions: pharmacological inhibition of HDAC; cited from earlier work
C. elegans neurons = conditions: dose-dependent manner; cited from earlier work

Question: Which acetyl-Htt level [1] does the source give for Cn1cnc(N)c2ncnc1-2 [3-methyladenine] here?
Answer: accumulation

Question: Which “lethality and degeneration in Drosophila model of HD” value (Drosophila model of HD) does the source give for O=C(CCCCCCC(=O)Nc1ccccc1)NO [SAHA, Suberoylanilide hydroxamic acid] here?
Answer: rescue the lethality and degeneration

Question: With CC(/C=C/C(=O)NO)=C\[C@@H](C)C(=O)c1ccc(N(C)C)cc1 [TSA, trichostatin A] as the molecule, how does the “degeneration of C. elegans neurons induced by mutant Htt” value (C. elegans neurons) read?
Answer: reduced the degeneration

Question: What does the source list for CC(=O)N[C@@H](CSC(=O)[C@]1([C@@H](O)C(C)C)NC(=O)[C@H](C)[C@@H]1O)C(=O)O [lactacystin]?
Answer: acetyl-Htt level [1]: no significant effect; total Htt level [1]: no significant effect
